Patent US9149038B2, “4-amino-6-(heterocyclic)picolinates and 6-amino-2-(heterocyclic)pyrimidine-4-carboxylates and their use as herbicides” (Dow AgroSciences LLC, priority 2013, dated 2015)
Read-outs that look alike come from different tables or passages of the source.

Assays:
[1] = test system: Key Broadleaf Weed and Crop Species; test: Post-Emergent Test II: postemergent herbicidal activity, visual rating after 14 d (Table 7); format: in vivo; conditions: post-emergence, 336 h; for pest or weed control at 35 g/ha: 35 g ai/ha; for pest or weed control at 70 g/ha: 70 g ai/ha; for pest or weed control at 140 g/ha: 140 g ai/ha
In short: (§1)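 Scoring is visual, 0-100, at 14 d after application, comparing treated with untreated plants. Application: overhead track spray at 187 L/ha onto seedlings at 1-2 true leaves, in surfactant/crop-oil carrier.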

[2] = test system: Key Grass and Sedge Weeds as well as Grass Crops; test: Post-Emergent Test II: postemergent herbicidal activity, visual rating after 14 d (Table 8); format: in vivo; conditions: post-emergence, 336 h; for pest or weed control at 35 g/ha: 35 g ai/ha; for pest or weed control at 70 g/ha: 70 g ai/ha; for pest or weed control at 140 g/ha: 140 g ai/ha
In short: as §1

[3] = ABUTH: velvetleaf (Abutilon theophrasti), read-out: Visual Growth Reduction (%) 14 Days After Application ABUTH
[4] = AMARE: redroot pigweed (Amaranthus retroflexus), read-out: Visual Growth Reduction (%) 14 Days After Application AMARE
[5] = BRSNN: oilseed rape, canola (Brassica napus), read-out: Visual Growth Reduction (%) 14 Days After Application BRSNN
[6] = CHEAL: lambsquarters (Chenopodium album), read-out: Visual Growth Reduction (%) 14 Days After Application CHEAL
[7] = EPHHL: wild poinsettia (Euphorbia heterophylla), read-out: Visual Growth Reduction (%) 14 Days After Application EPHHL
[8] = HELAN: sunflower (Helianthus annuus), read-out: Visual Growth Reduction (%) 14 Days After Application HELAN
[9] = barnyardgrass (Echinochloa crus-galli), read-out: Visual Growth Reduction (%) 14 Days After Application, ECHCG
[10] = giant foxtail (Setaria faberi), read-out: Visual Growth Reduction (%) 14 Days After Application, SETFA
[11] = maize, corn (Zea mays), read-out: Visual Growth Reduction (%) 14 Days After Application, ZEAMX
[12] = rice (Oryza sativa), read-out: Visual Growth Reduction (%) 14 Days After Application, ORYSA
[13] = wheat, spring (Triticum aestivum), read-out: Visual Growth Reduction (%) 14 Days After Application, TRZAS
[14] = yellow nutsedge (Cyperus esculentus), read-out: Visual Growth Reduction (%) 14 Days After Application, CYPES

Compound `Nc1c(F)c(-c2ccc3c(c2)COC3)nc(C(=O)O)c1Cl` [Compound 104] has a pest or weed control at 35 g/ha [1, 3] of 0 to 29%, a pest or weed control at 70 g/ha [1, 3] of 0 to 29% and a pest or weed control at 140 g/ha [1, 3] of 0 to 29%. It also gave a pest or weed control at 35 g/ha [1, 4] of 0 to 29%, a pest or weed control at 70 g/ha [1, 4] of 0 to 29% and a pest or weed control at 140 g/ha [1, 4] of 0 to 29%. For the same compound, the pest or weed control at 35 g/ha [1, 5] was 0 to 29%, the pest or weed control at 70 g/ha [1, 5] was 0 to 29% and the pest or weed control at 140 g/ha [1, 5] was 0 to 29%. It also gave a pest or weed control at 35 g/ha [1, 6] of 45 to 59%, a pest or weed control at 70 g/ha [1, 6] of 85 to 94% and a pest or weed control at 140 g/ha [1, 6] of 85 to 94%. For the same compound, the pest or weed control at 35 g/ha [1, 7] was 0 to 29%, the pest or weed control at 70 g/ha [1, 7] was 0 to 29% and the pest or weed control at 140 g/ha [1, 7] was 0 to 29%. The pest or weed control at 35 g/ha [1, 8] was 45 to 59%, the pest or weed control at 70 g/ha [1, 8] was 75 to 84% and the pest or weed control at 140 g/ha [1, 8] was 75 to 84%. It also gave a pest or weed control at 35 g/ha [2, 9] of 0 to 29%, a pest or weed control at 70 g/ha [2, 9] of 0 to 29% and a pest or weed control at 140 g/ha [2, 9] of 0 to 29%. The pest or weed control at 35 g/ha [2, 10] was 0 to 29%, the pest or weed control at 70 g/ha [2, 10] was 0 to 29% and the pest or weed control at 140 g/ha [2, 10] was 0 to 29%. The pest or weed control at 35 g/ha [2, 11] was 0 to 29%, the pest or weed control at 70 g/ha [2, 11] was 0 to 29% and the pest or weed control at 140 g/ha [2, 11] was 0 to 29%. For the same compound, the pest or weed control at 35 g/ha [2, 12] was 0 to 29%, the pest or weed control at 70 g/ha [2, 12] was 0 to 29% and the pest or weed control at 140 g/ha [2, 12] was 0 to 29%. It also gave a pest or weed control at 35 g/ha [2, 13] of 0 to 29%, a pest or weed control at 70 g/ha [2, 13] of 0 to 29% and a pest or weed control at 140 g/ha [2, 13] of 0 to 29%. It also gave a pest or weed control at 35 g/ha [2, 14] of 0 to 29%, a pest or weed control at 70 g/ha [2, 14] of 0 to 29% and a pest or weed control at 140 g/ha [2, 14] of 0 to 29%.
